Measured values published in paper PMC6670186, “Novel prodrugs of decitabine with greater metabolic stability and less toxicity” (Clinical Epigenetics, 2019).
“Also recorded” adds a separate entry of the source. Like-named read-outs stand apart in the source and are kept apart here. Marks after values point to notes of the source that are not given here.

Columns and labels:
[1] = tested on: exogenous UCHL1 promoter and OSR2 promoter CpG island; experiment: Quantitative methylation-specific PCR of marker genes; type: cell-based, Human; details: qMSP; for DNA demethylation after pulse exposure: HML58-3 cells, 1.0 μM for 1 h; for DNA demethylation of exogenous UCHL1 promoter and OSR2 promoter CpG island: 0.0 to 10.0 μM
Procedure: One microgram of EcoRV-digested genomic DNA was treated with sodium bisulfite as described previously. Bisulfite-treated DNA was resuspended in 40 μL of TE-buffer (10 mM Tris, pH 8.0; 1 mM EDTA, pH 8.0), and 1 μL was used for quantitative methylation-specific PCR (qMSP) using primers specific to methylated and unmethylated target loci, including MetLuc-UCHL1 promoter, OSR2 promoter, and UCHL1 promoter (Additional file 1: Table S1). As a fully unmethylated DNA control, genomic DNA from peripheral blood cells of a healthy person was amplified twice using a GenomiPhi DNA amplification kit (GE Healthcare Life Sciences; Little Chalfont, UK). As a fully methylated DNA control, the fully unmethylated DNA was methylated by SssI methylase (New England Biolabs; Beverly, MA).

[2] = biological target: T1, human recombinant cytidine deaminase (Homo sapiens, UniProt P32320); experiment: Stability in the presence of cytidine deaminase; type: in vitro ADME
T1 construct: His; purchased AT Gen Co. Ltd; Seoul, Korea
T1 sequence (P32320 whole entry): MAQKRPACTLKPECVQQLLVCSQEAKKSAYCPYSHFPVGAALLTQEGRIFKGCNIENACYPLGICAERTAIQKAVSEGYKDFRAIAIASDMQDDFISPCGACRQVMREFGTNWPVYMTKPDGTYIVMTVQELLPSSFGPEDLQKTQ
Source text: The remaining of the starting derivatives were continuously assayed using HPLC analytical conditions as described above.

HCT116 cells = experiment: Cell growth inhibition, HCT116; type: cell-based, Human
Procedure: (§1) Cells were seeded at a density of 1 × 10^3 to 5 × 10^3 cells/well in a 96-well microplate or 1 × 10^4 to 5 × 10^4 cells/well in a six-well microplate on day 0 in triplicate, followed by treatment with drugs on day 1. The cell growth of HCT116 was estimated using IncuCyte (Essen BioScience, K.K.; Tokyo, Japan) for 94 h. The cell viability of SW480, HT29, and TMK1 was evaluated using a WST-8 [2-(2-methoxy-4-nitrophenyl)-3-(4-nitrophenyl)-5-(2, 4-disulfophenyl)-2H tetrazolium, monosodium salt] assay (Nacalai Tesque Inc., Kyoto, Japan). The numbers of cells of RKO, breast cancer cell lines, sarcoma cell lines, and neuroblastoma cell lines were counted using a microscope. The half-maximum inhibitory concentration (IC50) was obtained using the non-linear regression analysis of log (inhibitor) versus the normalized response with a variable slope using the GraphPad Prism software (GraphPad Software; La Jolla, CA).

TMK1 cells = experiment: Cell viability (WST-8), TMK1; type: cell-based
Procedure: as §1

[3] = Adverse effects in xenograft-bearing nude mice (body weight, blood count, biochemical tests); type: in vivo; details: for WBC count and liver function: doses equimolar to that of DAC
Procedure: (§2) HCT116 cells (5.0 × 10^6 cells per mouse) were subcutaneously injected into the inguinal region of 6-week-old female nude mice (n = 81) (BALB/c-nu/nu; CLEA Japan, Tokyo, Japan). Once tumors reached an average volume of 80 mm^3, mice bearing xenograft tumors were randomly divided into nine groups and treated intraperitoneally with vehicle (5% DMSO in 10% 2-hydroxypropyl-β-cyclodextrin solution), DAC, OR-2003, or OR-2100. The length and width of tumors were measured with standard calipers twice per week, and tumor volumes were calculated using the formula tumor volume = (length × width^2) × 0.5. Body weight was measured twice per week. […] The remaining mice were categorized as group 1 and continuously treated with drugs. At 29 days after the treatment, tumors, major organs, bone marrow, and blood serum were collected from six mice and blood count and biochemical tests were performed. The mice were maintained under standard conditions according to the institutional guidelines for animal care.

DNMT1 = DNMT1 western blot; type: cell-based, Human; details: HML58-3 cells
Procedure: Cells were seeded at a density of 3 × 10^5 cells/10-cm dish and treated with appropriate drug(s) 24 h after the initial seeding. On day 5, the cells were lysed in RIPA buffer (20 mM Tris-HCl, pH 7.6; 150 mM NaCl; 1 mM EDTA; 0.1% SDS; and 1% NP-40) containing 3 mM dithiothreitol, proteinase inhibitor cocktail (Nacalai Tesque; Kyoto, Japan). Proteins were resolved by SDS-PAGE and transferred to an Immobilon-P […] membrane (Merck Millipore; Billerica, MA). After blocking, each membrane was incubated with rabbit anti-DNMT1 antibody (Abcam, 1:1000) or mouse anti-PARP antibody (BD, 1:1000). Following three cycles of 10-min washes with PBS supplemented with 0.5% Tween 20 (PBS-T), blots were incubated with secondary antibodies (rabbit IgG, 1:1000; mouse IgG, 1:10000) and rewashed. Chemiluminescence was detected using an ECL kit (Biological Industries).

[4] = Pharmacokinetics in mice, intraperitoneal; type: in vivo; details: for AUC 0 → lim, Total: OR compound + metabolite DAC; for AUC 0 → lim, OR compound: dose equimolar to 0.20 mg/kg DAC
Procedure: Six-week-old female ICR mice were intraperitoneally injected with 0.20 mg/kg of DAC, 0.29 mg/kg of OR-2003, 0.32 mg/kg of OR-2009, 0.30 mg/kg of OR-2100, and 0.31 mg/kg of OR-2102. The doses were decided so that equivalent amounts of molar concentration would be administered. The blood plasma was collected before and at 5, 15, 30, 45, 60, 90, and 120 min after the treatment. All experimental procedures were approved by the Committee of National Cancer Center.

HCT116 xenografts = experiment: Xenograft tumor formation assay in nude mice; type: in vivo; details: for tumor growth (tumor volume): intraperitoneal, twice per week; for DNA demethylation of two promoters in xenograft tumors: group 2 mice
Procedure: as §2

RKO cells = experiment: Cell growth inhibition, RKO; type: cell-based, Human
Procedure: as §1

[5] = set-up: method as in Yoo C.B. et al. Cancer Research 2007; 67:6400–6408; details: ref Yoo C.B. et al. Cancer Research 2007, 67:6400–6408; cited from earlier work
HML58-3 = experiment: Expression microarray; type: cell-based, Human; details: 1 μM, 58,341 probes
Procedure: Cy3-labeled cRNA was synthesized from 100 ng of total RNA using a Low Input Quick Amp Labeling Kit, One-Color (Agilent Technologies, Santa Clara, CA), and 600 ng of labeled cRNA was fragmented and hybridized to SurePrint G3 Human Gene Expression 8 x 60K v3 Microarray (Agilent Technologies). The hybridized microarray was scanned with an Agilent G2600D microarray scanner (Agilent Technologies). The scanned data were processed using Feature Extraction software (Agilent Technologies) and analyzed using GeneSpring software (Agilent Technologies). The 75th percentile of the signal intensity of all probes was normalized to be 0, and the genes with signal intensities of − 1 or more were regarded as showing positive expression.

HML58-3 cells [6] = experiment: Genome-wide DNA methylation analysis (Infinium MethylationEPIC); type: cell-based, Human; details: 1 μM
Procedure: Genome-wide DNA methylation analysis was performed using an Infinium Human MethylationEPIC BeadChip (Infinium EPIC; Illumina; Sam Diego, CA) as described previously. The BeadArray assessed the degree of methylation of 862,927 CpG probes as beta-values that ranged from 0 (unmethylated) to 1 (fully methylated). To reduce the data size and obtain data that were easy to handle, the CpG probes were grouped into 548,546 genomic blocks (GBs), which consisted of probes within 500 bp.

SFRP1 and UCHL1 = experiment: RT-qPCR of tumor-suppressor genes after pulse exposure; type: cell-based, Human; details: HML58-3 cells, 1.0 μM for 1 h
Procedure: Complementary DNA (cDNA) was synthesized from DNase-treated total RNA (1 μg) using oligo-(dT) 20 (Thermo Fisher Scientific; Waltham, MA) and SuperScript IV Reverse Transcriptase (Thermo Fisher Scientific). The number of cDNA molecules was quantified using qRT-PCR. The primer sequences and PCR conditions are shown in Additional file 1: Table S1. The copy number of each sample was calculated by comparing the amplification curve with those of standard DNA samples with known copy number. The number of target cDNA molecules was normalized to that of GAPDH cDNA molecules.

[7] = Stability in phosphate-buffered saline; type: physicochemical; details: for Stability t1/2 in PBS: PBS 37 °C, 20** + x h, 20 h = t1/2 in PBS of DAC, x = OR compound; for t1/2 in PBS: PBS solution at 37°C
Procedure: Five microliters of DAC derivatives (1.0 mg/100 μL of DMSO) was added to 200 μL of a stirred PBS solution at 37 °C. The mixture was stirred continuously for 1 day. The remaining of the starting derivatives was assayed using the HPLC analytical conditions as described above.

[8] = Partition coefficient (log P), shake-flask method, n-octanol/PBS; type: physicochemical
Procedure: The method employed HPLC with the following conditions: ZORBAX Bonus C18 column (4.6 × 150 mm, 3 μm); eluent: A = 10 mM HCO2NH4, B = acetonitrile, A:B = 50:50 (an isocratic mode for 5 min), and A:B = 99:1–20:80 (a gradient mode for 15 min); flow rate = 1.0 mL/min; oven temperature = 40 °C; detection = 240 nm.

HML58-3 cells [9] = experiment: Luciferase reporter assay for DNA demethylation; type: cell-based, Human; details: 0.1 and 1.0 μM for 1 h, analyzed on day 5
Procedure: Cells were seeded at a density of 5 × 10^3 cells/well in a 96-well microplate on day 0 in triplicate, and 5 × 10^4 cells/well in a six-well plate on day 0. On day 1, the medium was replaced with a medium containing a specific concentration of a drug, which was freshly dissolved in DMSO and filtered through a 0.2-μ filter. On day 5, the supernatant from each well of the 96-well microplate was collected to measure luminescence. Luminescence was measured using the Ready-To-Glow^TM Secreted Luciferase Reporter Assay (Clontech; Mountain View, CA) and a multimode plate reader ARVO^TMMX (PerkinElmer Japan Co Ltd.; Kanagawa, Japan).

[10] = plasma, DAC (metabolite for OR compounds), equimolar dose

Nc1ncn([C@H]2C[C@H](O)[C@@H](CO)O2)c(=O)n1 [DAC, 2′-deoxy-5-azacytidine, reference compound]
dose with strongest effect of DNA demethylation [1]: 1.0 µM | Enzymatic stability ([2]; cytidine deaminase, after 0.5 h): completely degraded; also recorded: Complete degradation after 0.5 h | IC50 (HCT116 cells; Homo sapiens, HCT-116): 850 nM | IC50 (TMK1 cells; Homo sapiens, TMK-1): 5830 nM | body weight ([3]; 7.50 and 3.75 mg/kg, initial experiment): severe body weight loss | WBC count and liver function (AST, ALT) ([3]; even at a lower dose (0.625 and 1.250 mg/kg)): affected | DNMT1 protein level (DNMT1): depleted at 3 and 10 μM | AUC ([4]; female, ICR, mouse, ip, 0.2 mg/kg, plasma, DAC (metabolite for OR compounds), equimolar dose, read-out: AUC 0 → lim, DAC): 0.378 µM·h | tumor growth (tumor volume) (HCT116 xenografts): suppressed the xenograft growth | IC50 (RKO cells; Homo sapiens): 0.2 nM | Stability t1/2 in PBS [5]: 20 h | number of genes upregulated more than twofold and to − 1.0 log2 value (HML58-3): 2011

CCC[Si](C)(C)OC[C@H]1O[C@@H](n2cnc(N)nc2=O)C[C@@H]1O [OR-2003]
DNA demethylation after pulse exposure [1]: stronger demethylation | DNA demethylation of exogenous UCHL1 promoter and OSR2 promoter CpG island [1]: as strongly as DAC | enzymatic stability in the presence of CDA [2]: stable in the presence of CDA | IC50 (HCT116 cells): 910 nM | IC50 (TMK1 cells): 2840 nM | genome-wide DNA demethylation (HML58-3 cells [6]): as strong DNA demethylation as DAC | WBC count and liver function [3]: no influence | WBC count ([3]; highest dose 3.600 mg/kg): affected the WBC count | expression level of SFRP1 and UCHL1 after pulse exposure (SFRP1 and UCHL1): twice as high as that induced by DAC | half-life (time to release DAC) [7]: 1 h | Stability t1/2 in PBS [7]: 20** + 1 h | t1/2 in PBS [7]: 1.0 h | total AUC of OR compound and metabolite DAC compared with DAC [4]: larger AUCs than that of DAC | Cmax ([4]; comparison among four OR compounds): highest Cmax | AUC 0 → lim, DAC [4, 10]: 0.338 µM·h | AUC 0 → lim, Total ([4]; plasma): 0.643 µM·h | AUC 0 → lim, OR compound ([4]; plasma): 0.305 µM·h | DNA demethylation of two promoters in xenograft tumors (HCT116 xenografts): significant demethylation | tumor growth inhibition (HCT116 xenografts; highest dose 3.600 mg/kg): strongest effect | tumor growth (tumor volume) (HCT116 xenografts): significant and dose-dependent inhibition of tumor growth | IC50 (RKO cells): 40 nM | number of genes upregulated more than twofold and to − 1.0 log2 value (HML58-3): 2060 | Log PO/PBS [8]: 1.64

CC[Si](CC)(CC)OC[C@H]1O[C@@H](n2cnc(N)nc2=O)C[C@@H]1O [OR-2100]
DNA demethylation after pulse exposure [1]: stronger demethylation | DNA demethylation of exogenous UCHL1 promoter and OSR2 promoter CpG island [1]: slightly lower demethylation | IC50 (HCT116 cells): 1110 nM | IC50 (TMK1 cells): 1410 nM | genome-wide DNA demethylation (HML58-3 cells [6]): as strong DNA demethylation as DAC | WBC count and liver function [3]: no influence | adverse effects ([3]; high dose): no adverse effects | half-life (time to release DAC) [7]: ≥ 14 h | Stability t1/2 in PBS [7]: 20** + 16 h | t1/2 in PBS [7]: 16 h | total AUC of OR compound and metabolite DAC compared with DAC [4]: larger AUCs than that of DAC | AUC 0 → lim, DAC [4, 10]: 0.266 µM·h | AUC 0 → lim, Total ([4]; plasma): 0.434 µM·h | AUC 0 → lim, OR compound ([4]; plasma): 0.168 µM·h | DNA demethylation of two promoters in xenograft tumors (HCT116 xenografts): significant demethylation | tumor growth (tumor volume) (HCT116 xenografts): significant and dose-dependent inhibition of tumor growth | IC50 (RKO cells): 60 nM | luciferase activity after pulse exposure (HML58-3 cells [9]): weaker than that of DAC | number of genes upregulated more than twofold and to − 1.0 log2 value (HML58-3): 2041 | Log PO/PBS [8]: 2.14
